Measurements as given in PubChem BioAssay (NCI).
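Dose response: 5 concentrations. Exposure: 48 h. Format: 96-well plates. Endpoint: linear interpolation; highest concentration if not reached. GI50: concentration for 50% inhibition of growth. TGI is the concentration that stops growth completely.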

What was measured:
Assay in all cases: DTP human tumour cell line panel, 48 h
[1] = test system: OVCAR-8 ovarian
[2] = test system: MOLT-4 leukemia
[3] = test system: SR leukemia
[4] = test system: MDA-MB-435
[5] = test system: ACHN renal
[6] = test system: LOX IMVI melanoma
[7] = test system: UACC-62 melanoma
[8] = test system: MCF7 breast
[9] = test system: HT29 colon
[10] = test system: OVCAR-3 ovarian
[11] = test system: 786-0 renal
[12] = test system: SK-MEL-28 melanoma
[13] = test system: K-562 leukemia
[14] = test system: NCI-H522 lung
[15] = test system: EKVX NSCLC
[16] = test system: OVCAR-4 ovarian
[17] = test system: UO-31 renal
[18] = test system: SNB-19 CNS
[19] = test system: MDA-MB-231 breast
[20] = test system: HOP-62 NSCLC
[21] = test system: SF-268 CNS
[22] = test system: M14 melanoma
[23] = test system: NCI-H23 lung
[24] = test system: OVCAR-5 ovarian
[25] = test system: BT-549 breast
[26] = test system: U251 CNS
[27] = test system: SF-539 CNS
[28] = test system: SK-MEL-5 melanoma
[29] = test system: A498 renal
[30] = test system: SW-620 colon
[31] = test system: SK-MEL-2 melanoma
[32] = test system: UACC-257 melanoma
[33] = test system: T-47D breast
[34] = test system: KM12 colon
[35] = test system: A549 NSCLC
[36] = test system: HCC-2998 colon
[37] = test system: HCT-15 colon
[38] = test system: HS 578T breast
[39] = test system: NCI-H226 lung
[40] = test system: MALME-3M melanoma
[41] = test system: CAKI-1 renal
[42] = test system: DU-145 prostate
[43] = test system: SK-OV-3 ovarian
[44] = test system: SF-295 CNS
[45] = test system: NCI-H460 lung
[46] = test system: CCRF-CEM leukemia
[47] = test system: SN12C renal
[48] = test system: IGROV1 ovarian
[49] = test system: RXF 393 renal
[50] = test system: NCI/ADR-RES ovarian
[51] = test system: SNB-75 CNS
[52] = test system: PC-3 prostate
[53] = test system: HOP-92 NSCLC
[54] = test system: COLO 205 colon
[55] = test system: HL-60(TB) leukemia
[56] = test system: RPMI-8226 leukemia
[57] = test system: HCT-116 colon
[58] = test system: TK-10 renal

## CC1(C)CCC(S(=O)(=O)c2ccc3c(c2)/C(=N\O)c2cc(S(=O)(=O)N4CCN(c5ccc(F)cc5O)CC4)ccc2-3)CC1
[1]
  GI50: 0.0869 µM
  TGI: 0.402 µM
[2]
  GI50: 0.0762 µM
  TGI: 0.242 µM
[3]
  GI50: 0.0293 µM
  TGI: 0.0802 µM
[4]
  GI50: 0.107 µM
  TGI: 0.251 µM
[5]
  GI50: 0.282 µM
  TGI: 1.34 µM
[6]
  GI50: 0.0213 µM
  TGI: 0.0504 µM
[7]
  GI50: 0.0717 µM
  TGI: 0.221 µM
[8]
  GI50: 0.159 µM
  TGI: 0.453 µM
[9]
  GI50: 0.044 µM
  TGI: 0.182 µM
[10]
  GI50: 0.117 µM
  TGI: 0.285 µM
[11]
  GI50: 0.186 µM
  TGI: 0.415 µM
[12]
  GI50: 0.129 µM
  TGI: 0.293 µM
[13]
  GI50: 0.0508 µM
  TGI: 0.188 µM
[14]
  GI50: 0.147 µM
  TGI: 0.29 µM
[15]
  GI50: 0.152 µM
  TGI: 0.515 µM
[16]
  GI50: 0.0635 µM
  TGI: 0.263 µM
[17]
  GI50: 0.188 µM
  TGI: 0.46 µM
[18]
  GI50: 0.211 µM
  TGI: 0.486 µM
[19]
  GI50: 0.0721 µM
  TGI: 0.289 µM
[20]
  GI50: 0.101 µM
  TGI: 0.237 µM
[21]
  GI50: 0.109 µM
  TGI: 0.286 µM
[22]
  GI50: 0.0352 µM
  TGI: 0.144 µM
[23]
  GI50: 0.23 µM
  TGI: 0.583 µM
[24]
  GI50: 0.164 µM
  TGI: 0.367 µM
[25]
  GI50: 0.133 µM
  TGI: 0.286 µM
[26]
  GI50: 0.105 µM
  TGI: 0.223 µM
[27]
  GI50: 0.127 µM
  TGI: 0.27 µM
[28]
  GI50: 0.179 µM
  TGI: 0.326 µM
[29]
  GI50: 0.84 µM
  TGI: 2.63 µM
[30]
  GI50: 0.0467 µM
  TGI: 0.168 µM
[31]
  GI50: 0.073 µM
  TGI: 0.204 µM
[32]
  GI50: 0.165 µM
  TGI: 0.491 µM
[33]
  GI50: 0.104 µM
  TGI: 0.234 µM
[34]
  GI50: 0.0479 µM
  TGI: 0.22 µM
[35]
  GI50: 0.068 µM
  TGI: 0.218 µM
[36]
  GI50: 0.104 µM
  TGI: 0.262 µM
[37]
  GI50: 0.153 µM
  TGI: 0.445 µM
[38]
  GI50: 0.163 µM
  TGI: 0.448 µM
[39]
  GI50: 0.206 µM
  TGI: 0.512 µM
[40]
  GI50: 0.141 µM
  TGI: 0.295 µM
[41]
  GI50: 0.157 µM
  TGI: 0.351 µM
[42]
  GI50: 0.0517 µM
  TGI: 0.284 µM
[43]
  GI50: 0.109 µM
  TGI: 0.24 µM
[44]
  GI50: 0.176 µM
  TGI: 0.394 µM
[45]
  GI50: 0.0661 µM
  TGI: 0.223 µM
[46]
  GI50: 0.093 µM
  TGI: 0.37 µM
[47]
  GI50: 0.683 µM
[48]
  GI50: 0.149 µM
  TGI: 0.346 µM
[49]
  GI50: 0.157 µM
  TGI: 0.314 µM
[50]
  GI50: 0.443 µM
  TGI: 2.63 µM
[51]
  GI50: 0.162 µM
  TGI: 0.324 µM
[52]
  GI50: 0.108 µM
  TGI: 0.314 µM
[53]
  GI50: 0.219 µM
  TGI: 0.504 µM
[54]
  GI50: 0.0548 µM
  TGI: 0.183 µM
[55]
  GI50: 0.0986 µM
  TGI: 0.288 µM
[56]
  GI50: 0.126 µM
  TGI: 1.15 µM
[57]
  GI50: 0.0332 µM
  TGI: 0.119 µM

## O=C1/C(=C/c2cccc(O)c2)COc2ccccc21
[1]
  TGI: 24.4 µM
[3]
  TGI: > 100 µM
[4]
  TGI: 17.2 µM
[58]
  TGI: 31.2 µM
[5]
  TGI: 3.89 µM
[6]
  TGI: 3.92 µM
[7]
  TGI: 9.81 µM
[8]
  TGI: > 43.6 µM
[9]
  TGI: 11.4 µM
[10]
  TGI: 4.85 µM
[11]
  TGI: 14.5 µM
[12]
  TGI: 11.9 µM
[13]
  TGI: > 33.2 µM
[14]
  TGI: 5.82 µM
[15]
  TGI: 34 µM
[16]
  TGI: 21.8 µM
[17]
  TGI: 24.8 µM
[18]
  TGI: 21.8 µM
[19]
  TGI: 21.4 µM
[20]
  TGI: 28.4 µM
[21]
  TGI: 40.8 µM
[22]
  TGI: 13 µM
[23]
  TGI: 18.1 µM
[24]
  TGI: 26.6 µM
[25]
  TGI: 49.5 µM
[26]
  TGI: 3.8 µM
[27]
  TGI: 25.8 µM
[28]
  TGI: 22.8 µM
[29]
  TGI: 34.7 µM
[30]
  TGI: 6.79 µM
[31]
  TGI: 34.6 µM
[32]
  TGI: 7.29 µM
[33]
  TGI: 21.1 µM
[34]
  TGI: 7.09 µM
[35]
  TGI: 47.2 µM
[36]
  TGI: 1.48 µM
[37]
  TGI: 3.26 µM
[38]
  TGI: 43.6 µM
[39]
  TGI: 32.4 µM
[40]
  TGI: 26.3 µM
[41]
  TGI: 11.9 µM
[42]
  TGI: 28.1 µM
[43]
  TGI: 46.3 µM
[44]
  TGI: 33.4 µM
[45]
  TGI: 54.6 µM
[46]
  TGI: > 100 µM
[47]
  TGI: 19.8 µM
[48]
  TGI: 23.1 µM
[49]
  TGI: 29 µM
[50]
  TGI: 5.25 µM
[51]
  TGI: 34.5 µM
[52]
  TGI: > 53.8 µM
[53]
  TGI: > 55.6 µM
[54]
  TGI: 31.6 µM
[55]
  TGI: 63.8 µM
[57]
  TGI: 3.32 µM

## COc1cc(OC)cc(Oc2nc3cc(N)cc(N)c3nc2-c2ccccc2)c1
[1]
  GI50: 2.9 µM
  TGI: 16.3 µM
[3]
  GI50: 1.85 µM
  TGI: 28.9 µM
[4]
  GI50: 0.392 µM
  TGI: 1.83 µM
[58]
  TGI: 8.44 µM
[5]
  TGI: 17.9 µM
[6]
  GI50: 2.95 µM
  TGI: 13 µM
[7]
  GI50: 4.04 µM
  TGI: 18 µM
[8]
  GI50: 1.69 µM
  TGI: 4.53 µM
[9]
  GI50: 4.37 µM
  TGI: 17.8 µM
[10]
  GI50: 2.22 µM
  TGI: 8.65 µM
[11]
  TGI: 11.4 µM
[12]
  GI50: 3.18 µM
  TGI: 15.5 µM
[13]
  GI50: 3.77 µM
  TGI: 32.4 µM
[14]
  GI50: 0.891 µM
  TGI: 4.31 µM
[15]
  GI50: 3.77 µM
  TGI: 19.3 µM
[16]
  GI50: 2.89 µM
  TGI: 16.2 µM
[17]
  TGI: 15.3 µM
[18]
  GI50: 2.49 µM
  TGI: 12.5 µM
[19]
  GI50: 4.02 µM
  TGI: 21.8 µM
[20]
  GI50: 2.14 µM
  TGI: 12.8 µM
[21]
  GI50: 1.75 µM
  TGI: 7.13 µM
[22]
  GI50: 1.6 µM
  TGI: 7.76 µM
[23]
  GI50: 1.69 µM
  TGI: 12.7 µM
[24]
  GI50: 3.24 µM
  TGI: 16.4 µM
[25]
  GI50: 1.49 µM
  TGI: 6.92 µM
[26]
  GI50: 2.6 µM
  TGI: 10.8 µM
[28]
  GI50: 1.89 µM
  TGI: 6.47 µM
[29]
  TGI: 14.4 µM
[30]
  GI50: 2.26 µM
  TGI: 10.2 µM
[31]
  GI50: 2.29 µM
  TGI: 10.2 µM
[32]
  GI50: 2.19 µM
  TGI: 12.3 µM
[33]
  GI50: 2.37 µM
  TGI: 9.13 µM
[34]
  GI50: 1.03 µM
  TGI: 6.07 µM
[35]
  GI50: 2.88 µM
  TGI: 13.2 µM
[36]
  GI50: 2.52 µM
  TGI: 13.7 µM
[37]
  GI50: 2.04 µM
  TGI: 12.4 µM
[38]
  GI50: 1.32 µM
  TGI: 4.19 µM
[39]
  GI50: 6.55 µM
  TGI: 43 µM
[40]
  GI50: 0.426 µM
  TGI: 5.09 µM
[41]
  TGI: 24.1 µM
[42]
  TGI: 25.1 µM
[43]
  GI50: 3.49 µM
  TGI: 16.3 µM
[44]
  GI50: 2.21 µM
  TGI: 8.49 µM
[45]
  GI50: 2.92 µM
  TGI: 12.5 µM
[46]
  GI50: 1.97 µM
  TGI: 8.67 µM
[47]
  TGI: 22.3 µM
[48]
  GI50: 2.62 µM
  TGI: 12.3 µM
[49]
  TGI: 4.41 µM
[50]
  GI50: 1.13 µM
  TGI: 3.85 µM
[51]
  GI50: 0.127 µM
  TGI: 2.67 µM
[52]
  TGI: 17.4 µM
[53]
  GI50: 1.36 µM
  TGI: 8.9 µM
[54]
  GI50: 10.6 µM
  TGI: 22.4 µM
[55]
  GI50: 3.07 µM
  TGI: 25.9 µM
[56]
  TGI: 8.42 µM
[57]
  GI50: 2.36 µM
  TGI: 10.1 µM
